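Results reflect a 48-hour exposure of cells in 96-well plates to compound at five concentrations. GI50: concentration for 50% inhibition of growth. TGI is the concentration that stops growth completely.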
Legend:
Assay in all cases: NCI-60 cell line screen, 48 h
HOP-92 NSCLC = test system: HOP-92 NSCLC
UACC-257 melanoma = test system: UACC-257 melanoma
EKVX NSCLC = test system: EKVX NSCLC
A498 renal = test system: A498 renal
OVCAR-8 ovarian = test system: OVCAR-8 ovarian
MALME-3M melanoma = test system: MALME-3M melanoma
SF-295 CNS = test system: SF-295 CNS
MOLT-4 leukemia = test system: MOLT-4 leukemia
LOX IMVI melanoma = test system: LOX IMVI melanoma
UO-31 renal = test system: UO-31 renal

SMILES | GI50 (HOP-92 NSCLC) [µM] | TGI (HOP-92 NSCLC) [µM] | GI50 (UACC-257 melanoma) [µM] | TGI (UACC-257 melanoma) [µM] | GI50 (EKVX NSCLC) [µM] | TGI (EKVX NSCLC) [µM] | GI50 (A498 renal) [µM] | GI50 (OVCAR-8 ovarian) [µM] | TGI (OVCAR-8 ovarian) [µM] | GI50 (MALME-3M melanoma) [µM] | TGI (MALME-3M melanoma) [µM] | GI50 (SF-295 CNS) [µM] | TGI (SF-295 CNS) [µM] | GI50 (MOLT-4 leukemia) [µM] | TGI (MOLT-4 leukemia) [µM] | GI50 (LOX IMVI melanoma) [µM] | TGI (LOX IMVI melanoma) [µM] | GI50 (UO-31 renal) [µM] | TGI (UO-31 renal) [µM] | TGI (A498 renal) [µM]
C[C@@H](COCCC(=O)N1CCN(c2ncc(C(F)(F)F)cn2)CC1)Nc1cn[nH]c(=O)c1C(F)(F)F | 0.323 | > 65.7 | > 94.4 | > 100 | > 94 | > 100 | 0.0219 | 32.7 | > 100 | > 100 | > 100 | 19.5 | > 100 | 22.9 | > 100 | 27.9 | > 100 | 32.1 | > 100 | 
CC(=O)[O-].[Zn].c1ccc(/C(=N\Nc2ccccn2)c2ccccn2)cc1 | 0.0122 | 13.3 |  | 2.08 | 0.0465 | 2.84 |  | 0.0708 | 2.4 |  | 1.58 | 0.46 | 12.3 |  | 0.227 | 0.32 | 1.59 | 0.332 | 16.5 | 9.16
S=c1sc2cscc2s1 |  | 70.3 |  | 44.7 |  | 35.5 |  |  | 45.9 |  | 30.6 |  | > 100 |  | > 100 |  | > 100 |  | 35.6 | > 100
CCNNC(=O)[C@@H]1[C@H](c2cc(OC)c(OC)c(OC)c2)c2cc3c(cc2[C@H](O)[C@H]1CO)OCO3 | 0.433 | > 100 | 4.37 |  | 0.519 | > 100 | 0.211 | 0.692 | > 100 | > 20.5 | > 100 | 0.32 | > 100 | 0.4 | > 100 | 0.357 | > 100 | 4.32 | > 100 | 0.703
COc1cccc(CCC(=O)c2cc3c(N)c(C(=O)Nc4cccc(Cl)c4C)sc3nc2C)c1 | 0.753 | > 100 | 4.25 | > 100 | 0.998 | > 100 | 0.248 | 1.44 | > 100 | 0.469 | > 100 | 0.407 | 20.1 | 0.77 | > 100 | 0.664 | > 100 | 0.86 | > 100 | 2.47
Nc1cc(S(N)(=O)=O)ccc1SSc1ccc(S(N)(=O)=O)cc1N |  | > 100 |  | > 100 |  | > 100 |  |  | > 100 |  | > 100 |  | > 100 |  | > 100 |  | > 100 |  | > 100 | > 100
CCOc1nccc2c1nc(-c1nonc1N)n2CC | 1.17 | > 25 | > 25 | > 25 | > 25 | > 25 | 24.5 | > 25 | > 25 | > 25 | > 25 | > 25 | > 25 | > 25 | > 25 | > 25 | > 25 | > 18.4 | > 25 | > 25

Reference: PubChem BioAssay (NCI)
